Measurements taken from patent US7611848B2, “Method for selecting allosteric regulators of class III G protein-coupled receptors” (Centre National de la Recherche Scientifique (CNRS), priority 2003, dated 2009).
Blank lines part the entries; values can stand above or below the compound they belong to.

Tests used:
[1] = biological target: heterodimeric receptor GABAB (GB1 and GB2 subunits) (Homo sapiens, UniProt O75899); details: literature (Urwyler et al., 2001); cited from earlier work
[2] = tested on: deltaGB2s (truncated GABAB2 (GB2) subunit); experiment: IP production in HEK293 cells transiently expressing deltaGB2s receptor and chimeric G protein Gqi9; format: cell-based; details: deltaGB2s with Gqi9, FIG. 9
From the text: FIG. 9: Graph representing the dose-effect of CGP7930 on the deltaGB2s receptor, in HEK293 cells transiently expressing this receptor, and also the chimeric G protein Gqi9 that allows coupling of this receptor to the phospholipase C activation pathway. The results correspond to the ratio of the production of IP to the radioactivity remaining in the membranes.
The protocol described in section A.I. above, concerning the mGlu5 receptor, was applied mutatis mutandis to the mGlu1 and mGlu2 receptors and to the GB2 subunit.
For this, GPCRs-III for which positive allosteric modulators have been described were chosen: the mGlu1 receptor (Ro01-6128) (Knoflach et al., 2001), the mGlu2 receptor (LY487379) (Schaffhauser et al., 2003), and the GABAB2 (GB2) subunit of the GABAB receptor (CGP7930) (Urwyler et al., 2001). The receptors truncated with respect to their extracellular and intracellular portions are named, respectively, delta1s, delta2s and deltaGB2s and were expressed transiently in HEK293 cells.
In order to allow the delta2s and deltaGB2s receptors to activate the phospholipase C, and therefore to increase the production of inositol phosphates, these two receptors were coexpressed with the chimeric G protein Gqi9 as described above (Gomeza et al., 1996; Franek et al., 1999).

[3] = biological target: T1, wild-type mGlu5 receptor (Rattus norvegicus, UniProt P31424); experiment: IP production in HEK293 cells transiently expressing wild-type mGlu5 receptor; format: cell-based
T1 construct: expressed in transfected cells; host or cells: HEK293
T1 sequence (P31424 21-1171 isoform P31424-2 limits assumed): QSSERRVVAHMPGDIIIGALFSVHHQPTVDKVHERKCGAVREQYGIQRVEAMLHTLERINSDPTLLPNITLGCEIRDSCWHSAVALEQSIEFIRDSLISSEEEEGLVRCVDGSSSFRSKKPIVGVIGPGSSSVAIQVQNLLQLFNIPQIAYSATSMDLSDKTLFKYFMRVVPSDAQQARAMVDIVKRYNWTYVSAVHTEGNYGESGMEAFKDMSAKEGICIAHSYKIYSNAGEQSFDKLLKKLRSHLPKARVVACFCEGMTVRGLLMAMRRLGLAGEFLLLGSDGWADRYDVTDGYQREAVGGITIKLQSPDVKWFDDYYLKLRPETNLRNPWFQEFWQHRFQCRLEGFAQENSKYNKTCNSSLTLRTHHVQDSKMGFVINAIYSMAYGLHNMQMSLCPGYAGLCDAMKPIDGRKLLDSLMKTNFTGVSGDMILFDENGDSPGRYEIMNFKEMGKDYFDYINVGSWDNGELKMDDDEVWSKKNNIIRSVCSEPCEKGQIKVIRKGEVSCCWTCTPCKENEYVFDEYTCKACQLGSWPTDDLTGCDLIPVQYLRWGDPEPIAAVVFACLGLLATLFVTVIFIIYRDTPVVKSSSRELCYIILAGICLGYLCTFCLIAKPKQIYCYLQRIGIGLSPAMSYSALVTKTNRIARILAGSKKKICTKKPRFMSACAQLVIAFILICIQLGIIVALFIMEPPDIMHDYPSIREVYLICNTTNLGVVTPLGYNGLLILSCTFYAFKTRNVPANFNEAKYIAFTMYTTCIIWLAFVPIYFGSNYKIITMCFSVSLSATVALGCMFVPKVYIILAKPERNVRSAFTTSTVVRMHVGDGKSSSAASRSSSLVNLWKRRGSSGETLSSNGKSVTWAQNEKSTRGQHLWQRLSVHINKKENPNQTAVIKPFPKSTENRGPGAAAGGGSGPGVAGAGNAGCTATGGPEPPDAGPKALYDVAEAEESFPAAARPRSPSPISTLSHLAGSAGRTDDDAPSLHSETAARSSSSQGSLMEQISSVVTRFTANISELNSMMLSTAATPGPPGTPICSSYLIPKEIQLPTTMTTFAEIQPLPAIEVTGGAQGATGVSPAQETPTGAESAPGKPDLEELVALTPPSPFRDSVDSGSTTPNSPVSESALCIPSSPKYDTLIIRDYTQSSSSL
From the text: (§1) The results correspond to the ratio of the production of IP to the radioactivity remaining in the membranes.
(§2) The results correspond to the ratio of the production of IP to the radioactivity remaining in the membranes, and are expressed as percentage baseline production of IP.
(§3) In the context of the invention, the measurement of the level of activity of the GPCR-III-A can be carried out by any conventional method known to those skilled in the art that is suitable for measuring the activity of a GPCR-III. Among these methods, mention may be made, by way of example, of measurement of the level of production of inositol phosphates (IPs; see Experimental Section, below; Berridge, 1983; Brandish et al., 2003), measurement of […] (Milligan, 2003), measurement of intracellular calcium signals using fluorescent markers such as Fluo3 or Fluo4, and measurement of cAMP production, the latter two methods being conventional and well known to those skilled in the art.
DFB has recently been described as a positive allosteric regulator of the mGlu5 receptor (Williams et al., 2002). In order to test its effect on the mGlu5ΔS protein, DFB was synthesized by F. Acher (UMR University R. Descartes, rue des Saints Peres, Paris 5).
The data correspond to the mean±standard deviation of the mean of (n) experiments.

[4] = biological target: T2, mGlu5ΔS protein (heptahelical domain of the mGlu5 receptor) (Rattus norvegicus, UniProt P31424); experiment: IP production in HEK293 cells transiently expressing truncated mGlu5ΔS protein; format: cell-based
T2 construct: between residue P568, located 11 residues before the first transmembrane domain, and residue L864; signal peptide of the mGlu5 receptor (N); expressed in transfected cells; host or cells: HEK293
T2 sequence (P31424 568-864, stated change not applied): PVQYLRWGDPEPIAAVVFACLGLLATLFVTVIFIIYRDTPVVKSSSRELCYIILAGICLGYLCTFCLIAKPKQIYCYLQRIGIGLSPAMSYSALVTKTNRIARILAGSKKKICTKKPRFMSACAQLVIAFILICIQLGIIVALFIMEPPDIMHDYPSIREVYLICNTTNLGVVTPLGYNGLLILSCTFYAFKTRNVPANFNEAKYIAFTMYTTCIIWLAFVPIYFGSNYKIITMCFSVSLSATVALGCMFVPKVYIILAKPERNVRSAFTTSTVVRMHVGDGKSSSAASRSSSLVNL
From the text: as §2, §1, §3
The portion of the cDNA of the mGlu5 receptor encoding its heptahelical domain between residue P568, located 11 residues before the first transmembrane domain, and residue L864, located 37 residues after the 7th transmembrane domain, was amplified by PCR (primers SEQ ID No.1 and SEQ ID No.2), including, respectively, the restriction sites of the Mlu-I and Xba-I enzymes at the 5′ and 3′ ends (FIG. 2). The PCR product thus obtained was digested with the Mlu-I and Xba-I enzymes, subcloned into the vector pRK5-NHA (FIG. 2), and digested with the same enzymes. The plasmid pRK5-NHA was obtained from the plasmid pRKG5a-NHA (Ango et al., 1999), by replacing the sequence encoding the mGlu5 receptor, from the end of the HA tag to the XbaI restriction site, with an MluI restriction site.

[5] = biological target: mGlu2 receptor (Homo sapiens, UniProt Q14416); details: literature; cited from earlier work
mGlu2 receptor, sequence (Q14416 19-872): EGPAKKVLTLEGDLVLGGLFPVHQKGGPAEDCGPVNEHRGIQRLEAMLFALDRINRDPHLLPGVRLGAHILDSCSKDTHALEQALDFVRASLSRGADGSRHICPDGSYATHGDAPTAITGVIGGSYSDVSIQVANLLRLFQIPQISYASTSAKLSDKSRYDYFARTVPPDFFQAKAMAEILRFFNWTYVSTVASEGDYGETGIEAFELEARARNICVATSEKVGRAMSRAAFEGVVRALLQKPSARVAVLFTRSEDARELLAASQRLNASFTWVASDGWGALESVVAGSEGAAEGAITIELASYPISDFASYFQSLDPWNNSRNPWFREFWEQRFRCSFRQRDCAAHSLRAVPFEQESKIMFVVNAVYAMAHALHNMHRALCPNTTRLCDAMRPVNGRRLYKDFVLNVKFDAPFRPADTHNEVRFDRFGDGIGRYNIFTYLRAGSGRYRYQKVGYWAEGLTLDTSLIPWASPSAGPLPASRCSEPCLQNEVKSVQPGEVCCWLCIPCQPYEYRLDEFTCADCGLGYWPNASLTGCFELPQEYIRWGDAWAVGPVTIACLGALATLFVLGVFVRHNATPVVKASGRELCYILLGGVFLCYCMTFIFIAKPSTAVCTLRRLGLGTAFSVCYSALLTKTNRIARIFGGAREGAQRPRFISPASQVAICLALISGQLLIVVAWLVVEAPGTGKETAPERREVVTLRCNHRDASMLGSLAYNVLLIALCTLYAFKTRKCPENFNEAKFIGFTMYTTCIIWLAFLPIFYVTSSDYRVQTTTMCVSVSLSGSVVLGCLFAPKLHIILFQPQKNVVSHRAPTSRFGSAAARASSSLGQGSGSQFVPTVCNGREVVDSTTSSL

[6] = biological target: mGlu1 receptor (Rattus norvegicus, UniProt P23385); details: literature; cited from earlier work
mGlu1 receptor, sequence (P23385 19-1199): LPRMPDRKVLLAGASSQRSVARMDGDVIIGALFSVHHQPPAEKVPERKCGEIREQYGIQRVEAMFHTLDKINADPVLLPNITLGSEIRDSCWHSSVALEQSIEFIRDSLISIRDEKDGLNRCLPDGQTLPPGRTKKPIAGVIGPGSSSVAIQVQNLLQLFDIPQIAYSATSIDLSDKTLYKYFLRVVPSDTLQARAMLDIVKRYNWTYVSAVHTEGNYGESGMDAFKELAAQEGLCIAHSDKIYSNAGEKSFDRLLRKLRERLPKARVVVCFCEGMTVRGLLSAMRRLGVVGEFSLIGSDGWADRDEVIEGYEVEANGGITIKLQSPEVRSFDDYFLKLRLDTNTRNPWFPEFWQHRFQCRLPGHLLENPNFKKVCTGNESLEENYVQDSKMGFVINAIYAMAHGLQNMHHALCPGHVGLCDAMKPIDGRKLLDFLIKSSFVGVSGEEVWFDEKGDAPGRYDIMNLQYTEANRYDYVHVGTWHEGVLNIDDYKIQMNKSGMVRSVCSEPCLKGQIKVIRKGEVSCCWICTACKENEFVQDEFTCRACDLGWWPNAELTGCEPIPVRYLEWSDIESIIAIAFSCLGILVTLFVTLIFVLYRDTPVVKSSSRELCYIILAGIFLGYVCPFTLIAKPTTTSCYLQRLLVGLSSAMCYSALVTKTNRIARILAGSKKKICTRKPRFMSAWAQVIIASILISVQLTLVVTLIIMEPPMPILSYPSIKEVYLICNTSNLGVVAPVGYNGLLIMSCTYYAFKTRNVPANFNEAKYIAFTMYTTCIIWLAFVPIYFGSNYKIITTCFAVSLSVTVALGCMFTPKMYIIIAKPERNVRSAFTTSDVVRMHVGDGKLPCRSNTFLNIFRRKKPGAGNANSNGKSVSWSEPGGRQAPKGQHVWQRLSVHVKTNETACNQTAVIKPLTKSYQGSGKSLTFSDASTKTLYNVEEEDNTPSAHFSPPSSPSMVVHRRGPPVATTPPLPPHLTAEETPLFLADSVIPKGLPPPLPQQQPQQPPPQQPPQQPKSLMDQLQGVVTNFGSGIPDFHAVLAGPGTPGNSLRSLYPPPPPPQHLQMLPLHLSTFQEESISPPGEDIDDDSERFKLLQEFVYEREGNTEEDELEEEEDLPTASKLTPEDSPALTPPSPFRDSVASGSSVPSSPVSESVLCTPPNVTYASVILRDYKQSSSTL

Compound: CC(C)(CO)Cc1cc(C(C)(C)C)c(O)c(C(C)(C)C)c1 [CGP7930, 2,6-Di-tert.-butyl-4-4-(3-hydroxy-2,2-dimethyl-propyl)-phenol]
agonist activity on heterodimeric GABAB receptor [1]: weak agonist activity | stimulation of truncated construct (IP production) [2]: strongly stimulates

Compound: Fc1cccc(/C=N/N=C/c2cccc(F)c2)c1 [DFB]
activation of the wild-type mGlu5 receptor by compound alone ([3]; glutamate kept as low as possible by coexpression of EAAC1 and addition of GPT with pyruvate (2 mM)): did not significantly activate | EC50 ([3]; in the presence of a low concentration of agonist, read-out: EC50 for dose-dependent increase of IP production): 1.81 ± 1.04 µM | effect on IP production of compound alone (agonist behaviour) ([4]; cells expressing mGlu5ΔS): stimulated IP production | EC50 ([4]; compound alone on mGlu5ΔS, n=3, read-out: EC50 for stimulation of IP production): 8 ± 3 µM

Compound: COc1ccccc1Oc1ccc(N(Cc2cccnc2)S(=O)(=O)CC(F)(F)F)cc1 [LY487379]
agonist effect when applied alone [5]: no agonist effect | potentiation of the effect of agonists [5]: potentiate the effect of agonists

Compound: Cc1cccc(C#Cc2ccccc2)n1 [MPEP, 2-Methyl-6-(phenylethynyl)pyridine]
inhibition of the effect of DFB ([3]; wild-type receptor, data not shown): inhibited | inhibition of the effect of DFB ([4]; mGlu5ΔS cells treated with 300 μM of DFB (FIG. 6B)): inhibited

Compound: CCOC(=O)NC(=O)C(c1ccccc1)c1ccccc1 [Ro01-6128]
agonist effect when applied alone [6]: no agonist effect | potentiation of the effect of agonists [6]: potentiate the effect of agonists

effect of glutamate on IP production ([3]; 100 μM glutamate (FIG. 3), wild-type mGlu5): stimulated IP production
Compound: glutamate
